Reference: publication PMC4457528, “Identification of Novel Small Molecule Inhibitors of Oncogenic RET Kinase” (PLoS ONE, 2015)
Where two headings read alike, the source gives them in different places.

Legend:
Assay in all cases: KinomeScan kinase panel, single concentration 10 µM
Format in all cases: binding
KinomeScan kinase panel [1] = target: T1, KinomeScan kinase panel (Homo sapiens, UniProt P00533); settings: EGFR, 10 µM
T1 construct: purchased DiscoveRx (KinomeScan)

KinomeScan kinase panel [2] = target: T2, KinomeScan kinase panel (Homo sapiens, UniProt Q13237); settings: read-out: score (%)
T2 construct: purchased DiscoveRx (KinomeScan)
T2 sequence (Q13237 1-762): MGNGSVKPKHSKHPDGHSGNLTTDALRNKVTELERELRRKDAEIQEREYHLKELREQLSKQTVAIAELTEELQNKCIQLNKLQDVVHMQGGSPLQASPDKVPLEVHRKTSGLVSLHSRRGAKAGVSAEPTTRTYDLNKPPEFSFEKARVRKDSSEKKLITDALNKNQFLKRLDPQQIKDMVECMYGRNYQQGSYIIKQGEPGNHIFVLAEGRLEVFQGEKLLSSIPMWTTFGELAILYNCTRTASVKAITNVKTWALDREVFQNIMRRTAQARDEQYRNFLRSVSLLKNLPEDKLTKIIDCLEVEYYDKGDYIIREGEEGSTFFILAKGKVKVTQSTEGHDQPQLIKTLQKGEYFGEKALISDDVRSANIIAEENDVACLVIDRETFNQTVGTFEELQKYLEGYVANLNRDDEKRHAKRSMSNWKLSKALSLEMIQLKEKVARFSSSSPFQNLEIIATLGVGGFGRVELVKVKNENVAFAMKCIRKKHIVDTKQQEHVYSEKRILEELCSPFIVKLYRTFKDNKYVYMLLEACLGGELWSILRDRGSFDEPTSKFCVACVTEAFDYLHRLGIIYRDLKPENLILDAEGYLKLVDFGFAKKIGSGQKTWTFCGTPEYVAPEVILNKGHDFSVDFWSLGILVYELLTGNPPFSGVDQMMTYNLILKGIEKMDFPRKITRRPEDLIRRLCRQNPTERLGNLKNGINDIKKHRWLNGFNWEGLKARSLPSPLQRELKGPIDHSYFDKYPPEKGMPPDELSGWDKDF

KinomeScan kinase panel [3] = target: T3, KinomeScan kinase panel (Homo sapiens, UniProt Q15759); settings: p38-beta, 10 µM; read-out: score (%)
T3 construct: purchased DiscoveRx (KinomeScan)
T3 sequence (Q15759 whole entry): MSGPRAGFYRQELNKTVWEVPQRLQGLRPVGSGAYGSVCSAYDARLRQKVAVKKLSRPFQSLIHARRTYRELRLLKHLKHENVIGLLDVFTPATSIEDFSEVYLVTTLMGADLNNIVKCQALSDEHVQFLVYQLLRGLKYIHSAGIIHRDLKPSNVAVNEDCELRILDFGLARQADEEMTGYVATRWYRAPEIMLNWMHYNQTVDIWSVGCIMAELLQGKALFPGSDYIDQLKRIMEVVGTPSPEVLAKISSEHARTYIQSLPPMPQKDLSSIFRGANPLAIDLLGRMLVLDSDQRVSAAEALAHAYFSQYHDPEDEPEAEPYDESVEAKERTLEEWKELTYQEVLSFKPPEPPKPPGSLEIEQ

KinomeScan kinase panel [4] = target: T4, KinomeScan kinase panel (Homo sapiens, UniProt Q04912); settings: MST1R, 10 µM; read-out: score (%)
T4 construct: purchased DiscoveRx (KinomeScan)
T4 sequence (Q04912 25-1400): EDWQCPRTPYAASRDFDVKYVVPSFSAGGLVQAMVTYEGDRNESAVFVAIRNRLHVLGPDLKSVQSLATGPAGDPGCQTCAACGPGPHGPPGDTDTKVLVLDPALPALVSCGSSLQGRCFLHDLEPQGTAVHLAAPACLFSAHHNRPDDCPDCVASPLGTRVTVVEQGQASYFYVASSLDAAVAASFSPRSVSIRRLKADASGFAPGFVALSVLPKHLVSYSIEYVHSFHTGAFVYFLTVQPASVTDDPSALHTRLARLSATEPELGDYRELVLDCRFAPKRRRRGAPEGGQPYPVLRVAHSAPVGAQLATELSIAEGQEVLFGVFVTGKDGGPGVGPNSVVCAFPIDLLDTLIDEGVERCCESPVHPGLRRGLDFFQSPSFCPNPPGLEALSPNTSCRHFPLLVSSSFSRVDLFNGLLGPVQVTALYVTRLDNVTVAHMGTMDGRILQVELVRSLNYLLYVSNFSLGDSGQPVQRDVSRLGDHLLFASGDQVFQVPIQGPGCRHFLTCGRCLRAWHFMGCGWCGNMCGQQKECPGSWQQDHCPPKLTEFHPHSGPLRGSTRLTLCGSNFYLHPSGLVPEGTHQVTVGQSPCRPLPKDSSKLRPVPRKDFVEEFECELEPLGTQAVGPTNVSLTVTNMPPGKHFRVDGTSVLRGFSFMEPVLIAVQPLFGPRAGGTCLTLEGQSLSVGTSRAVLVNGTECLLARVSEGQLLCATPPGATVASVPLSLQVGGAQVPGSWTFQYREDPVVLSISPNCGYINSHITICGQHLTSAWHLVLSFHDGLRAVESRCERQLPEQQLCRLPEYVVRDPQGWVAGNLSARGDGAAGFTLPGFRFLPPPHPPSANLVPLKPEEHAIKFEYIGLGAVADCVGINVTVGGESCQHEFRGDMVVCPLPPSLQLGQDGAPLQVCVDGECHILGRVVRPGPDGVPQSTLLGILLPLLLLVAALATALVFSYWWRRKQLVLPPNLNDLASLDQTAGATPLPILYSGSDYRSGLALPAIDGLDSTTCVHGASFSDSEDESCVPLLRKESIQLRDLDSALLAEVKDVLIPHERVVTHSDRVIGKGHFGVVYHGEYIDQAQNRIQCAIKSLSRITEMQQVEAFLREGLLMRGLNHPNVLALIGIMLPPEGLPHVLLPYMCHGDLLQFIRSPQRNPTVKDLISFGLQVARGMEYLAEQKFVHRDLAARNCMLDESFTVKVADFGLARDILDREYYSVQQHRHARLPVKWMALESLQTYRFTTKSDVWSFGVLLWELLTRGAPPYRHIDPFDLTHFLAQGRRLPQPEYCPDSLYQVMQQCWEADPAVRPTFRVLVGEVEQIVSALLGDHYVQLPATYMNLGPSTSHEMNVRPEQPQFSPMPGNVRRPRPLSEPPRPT

KinomeScan kinase panel [5] = target: T5, KinomeScan kinase panel (Homo sapiens, UniProt P17612); settings: PKAC-alpha, 10 µM; read-out: score (%)
T5 construct: purchased DiscoveRx (KinomeScan)

KinomeScan kinase panel [6] = target: T6, KinomeScan kinase panel (Homo sapiens, UniProt P21127); settings: CDC2L1, 10 µM; read-out: score (%)
T6 construct: purchased DiscoveRx (KinomeScan)
T6 sequence (P21127 whole entry): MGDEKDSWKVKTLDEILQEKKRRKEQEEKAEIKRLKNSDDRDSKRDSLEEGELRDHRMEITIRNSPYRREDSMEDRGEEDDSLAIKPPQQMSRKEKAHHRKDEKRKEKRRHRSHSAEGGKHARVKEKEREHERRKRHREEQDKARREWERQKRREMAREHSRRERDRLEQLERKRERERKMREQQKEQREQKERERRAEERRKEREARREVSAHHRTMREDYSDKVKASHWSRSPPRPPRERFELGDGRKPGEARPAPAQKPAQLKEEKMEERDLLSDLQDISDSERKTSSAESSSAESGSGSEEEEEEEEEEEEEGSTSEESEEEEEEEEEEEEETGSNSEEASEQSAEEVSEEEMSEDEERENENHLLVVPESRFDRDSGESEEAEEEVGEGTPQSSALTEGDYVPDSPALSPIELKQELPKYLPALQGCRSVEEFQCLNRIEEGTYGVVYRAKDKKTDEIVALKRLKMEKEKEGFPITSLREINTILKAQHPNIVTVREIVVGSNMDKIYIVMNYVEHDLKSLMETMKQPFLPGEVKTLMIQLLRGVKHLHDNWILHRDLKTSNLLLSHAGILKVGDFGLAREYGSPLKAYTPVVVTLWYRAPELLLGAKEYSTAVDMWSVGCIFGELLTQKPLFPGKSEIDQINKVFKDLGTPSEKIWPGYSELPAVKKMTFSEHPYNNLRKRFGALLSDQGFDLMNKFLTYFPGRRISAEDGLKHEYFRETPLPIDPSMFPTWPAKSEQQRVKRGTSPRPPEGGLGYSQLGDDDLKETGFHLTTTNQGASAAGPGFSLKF

KinomeScan kinase panel [7] = target: T7, KinomeScan kinase panel (Homo sapiens, UniProt P54760); settings: EPHB4, 10 µM; read-out: score (%)
T7 construct: purchased DiscoveRx (KinomeScan)
T7 sequence (P54760 16-987): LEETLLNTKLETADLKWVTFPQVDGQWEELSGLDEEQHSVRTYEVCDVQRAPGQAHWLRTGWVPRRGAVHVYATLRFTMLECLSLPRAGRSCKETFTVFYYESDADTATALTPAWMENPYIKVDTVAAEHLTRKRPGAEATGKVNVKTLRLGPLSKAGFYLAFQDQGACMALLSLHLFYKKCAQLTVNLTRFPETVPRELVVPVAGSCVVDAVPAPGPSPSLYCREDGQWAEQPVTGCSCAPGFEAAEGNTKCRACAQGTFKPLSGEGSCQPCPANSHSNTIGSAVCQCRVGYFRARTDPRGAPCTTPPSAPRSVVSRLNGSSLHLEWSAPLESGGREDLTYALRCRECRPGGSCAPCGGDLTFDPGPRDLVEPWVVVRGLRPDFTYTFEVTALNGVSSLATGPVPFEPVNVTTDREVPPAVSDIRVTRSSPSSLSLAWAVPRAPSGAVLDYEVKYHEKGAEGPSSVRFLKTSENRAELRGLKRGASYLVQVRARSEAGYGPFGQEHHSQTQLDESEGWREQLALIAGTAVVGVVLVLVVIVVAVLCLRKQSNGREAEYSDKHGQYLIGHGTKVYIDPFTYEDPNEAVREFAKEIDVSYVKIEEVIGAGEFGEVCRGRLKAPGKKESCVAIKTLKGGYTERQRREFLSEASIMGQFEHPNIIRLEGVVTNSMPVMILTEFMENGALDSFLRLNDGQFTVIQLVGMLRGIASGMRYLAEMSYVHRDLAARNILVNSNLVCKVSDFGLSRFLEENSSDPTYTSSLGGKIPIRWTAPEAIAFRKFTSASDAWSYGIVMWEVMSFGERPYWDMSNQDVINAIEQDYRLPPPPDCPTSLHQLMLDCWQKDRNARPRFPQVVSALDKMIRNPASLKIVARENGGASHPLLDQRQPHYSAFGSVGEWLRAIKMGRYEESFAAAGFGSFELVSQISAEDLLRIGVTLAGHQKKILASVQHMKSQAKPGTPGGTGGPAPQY

KinomeScan kinase panel [8] = target: T8, KinomeScan kinase panel (Homo sapiens, UniProt P29317); settings: EPHA2, 10 µM; read-out: score (%)
T8 construct: purchased DiscoveRx (KinomeScan)
T8 sequence (P29317 24-976): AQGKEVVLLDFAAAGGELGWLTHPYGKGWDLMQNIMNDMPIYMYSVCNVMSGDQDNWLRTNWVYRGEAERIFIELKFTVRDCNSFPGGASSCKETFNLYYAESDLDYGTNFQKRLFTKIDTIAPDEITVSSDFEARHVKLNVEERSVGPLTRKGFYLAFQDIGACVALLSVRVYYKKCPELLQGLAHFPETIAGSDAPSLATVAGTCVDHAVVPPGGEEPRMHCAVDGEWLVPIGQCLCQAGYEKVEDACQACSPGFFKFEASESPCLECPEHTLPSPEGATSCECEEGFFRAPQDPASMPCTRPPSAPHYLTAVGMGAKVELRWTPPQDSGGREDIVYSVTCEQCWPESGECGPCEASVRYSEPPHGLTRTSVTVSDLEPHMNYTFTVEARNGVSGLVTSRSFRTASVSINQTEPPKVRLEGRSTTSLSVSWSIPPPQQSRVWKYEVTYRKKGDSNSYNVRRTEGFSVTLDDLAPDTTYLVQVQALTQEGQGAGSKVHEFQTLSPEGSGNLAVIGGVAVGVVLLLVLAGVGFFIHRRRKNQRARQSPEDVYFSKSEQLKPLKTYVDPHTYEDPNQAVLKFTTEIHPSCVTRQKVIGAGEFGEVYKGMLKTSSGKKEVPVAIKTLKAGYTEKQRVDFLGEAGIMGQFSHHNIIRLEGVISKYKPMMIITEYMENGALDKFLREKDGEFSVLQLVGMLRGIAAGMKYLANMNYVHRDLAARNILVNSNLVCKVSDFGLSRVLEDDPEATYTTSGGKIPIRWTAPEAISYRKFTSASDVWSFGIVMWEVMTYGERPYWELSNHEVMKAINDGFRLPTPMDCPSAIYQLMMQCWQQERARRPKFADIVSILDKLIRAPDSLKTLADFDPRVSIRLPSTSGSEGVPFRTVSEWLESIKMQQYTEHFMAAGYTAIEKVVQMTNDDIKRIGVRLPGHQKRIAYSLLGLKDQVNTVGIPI

KinomeScan kinase panel [9] = target: T9, KinomeScan kinase panel (Homo sapiens, UniProt P78356); settings: PIP5K2B, 10 µM; read-out: score (%)
T9 construct: purchased DiscoveRx (KinomeScan)
T9 sequence (P78356 1-416): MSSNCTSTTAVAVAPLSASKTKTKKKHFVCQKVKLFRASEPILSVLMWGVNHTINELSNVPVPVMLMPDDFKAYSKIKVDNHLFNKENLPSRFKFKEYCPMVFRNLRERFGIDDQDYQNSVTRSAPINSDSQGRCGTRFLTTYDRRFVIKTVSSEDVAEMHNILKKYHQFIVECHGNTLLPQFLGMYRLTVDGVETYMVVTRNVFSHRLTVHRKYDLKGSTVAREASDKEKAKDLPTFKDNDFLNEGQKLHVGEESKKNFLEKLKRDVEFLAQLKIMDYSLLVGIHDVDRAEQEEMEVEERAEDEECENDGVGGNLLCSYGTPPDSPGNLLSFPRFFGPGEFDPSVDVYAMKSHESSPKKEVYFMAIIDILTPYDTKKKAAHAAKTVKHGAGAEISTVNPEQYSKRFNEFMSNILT

KinomeScan kinase panel [10] = target: T10, KinomeScan kinase panel (Homo sapiens, UniProt P27361); settings: ERK1, 10 µM; read-out: score (%)
T10 construct: purchased DiscoveRx (KinomeScan)
T10 sequence (P27361 whole entry): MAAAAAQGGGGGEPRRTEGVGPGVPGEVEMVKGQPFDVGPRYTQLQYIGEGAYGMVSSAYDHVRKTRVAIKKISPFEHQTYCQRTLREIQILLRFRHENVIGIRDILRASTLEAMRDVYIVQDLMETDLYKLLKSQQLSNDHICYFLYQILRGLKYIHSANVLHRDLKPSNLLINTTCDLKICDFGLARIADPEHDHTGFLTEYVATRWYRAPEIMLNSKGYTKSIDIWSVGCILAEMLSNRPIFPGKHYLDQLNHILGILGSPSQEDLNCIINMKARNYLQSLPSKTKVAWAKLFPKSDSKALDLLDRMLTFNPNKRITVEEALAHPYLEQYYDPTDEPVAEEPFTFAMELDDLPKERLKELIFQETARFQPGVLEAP

T1 sequence (P00533 25-1210): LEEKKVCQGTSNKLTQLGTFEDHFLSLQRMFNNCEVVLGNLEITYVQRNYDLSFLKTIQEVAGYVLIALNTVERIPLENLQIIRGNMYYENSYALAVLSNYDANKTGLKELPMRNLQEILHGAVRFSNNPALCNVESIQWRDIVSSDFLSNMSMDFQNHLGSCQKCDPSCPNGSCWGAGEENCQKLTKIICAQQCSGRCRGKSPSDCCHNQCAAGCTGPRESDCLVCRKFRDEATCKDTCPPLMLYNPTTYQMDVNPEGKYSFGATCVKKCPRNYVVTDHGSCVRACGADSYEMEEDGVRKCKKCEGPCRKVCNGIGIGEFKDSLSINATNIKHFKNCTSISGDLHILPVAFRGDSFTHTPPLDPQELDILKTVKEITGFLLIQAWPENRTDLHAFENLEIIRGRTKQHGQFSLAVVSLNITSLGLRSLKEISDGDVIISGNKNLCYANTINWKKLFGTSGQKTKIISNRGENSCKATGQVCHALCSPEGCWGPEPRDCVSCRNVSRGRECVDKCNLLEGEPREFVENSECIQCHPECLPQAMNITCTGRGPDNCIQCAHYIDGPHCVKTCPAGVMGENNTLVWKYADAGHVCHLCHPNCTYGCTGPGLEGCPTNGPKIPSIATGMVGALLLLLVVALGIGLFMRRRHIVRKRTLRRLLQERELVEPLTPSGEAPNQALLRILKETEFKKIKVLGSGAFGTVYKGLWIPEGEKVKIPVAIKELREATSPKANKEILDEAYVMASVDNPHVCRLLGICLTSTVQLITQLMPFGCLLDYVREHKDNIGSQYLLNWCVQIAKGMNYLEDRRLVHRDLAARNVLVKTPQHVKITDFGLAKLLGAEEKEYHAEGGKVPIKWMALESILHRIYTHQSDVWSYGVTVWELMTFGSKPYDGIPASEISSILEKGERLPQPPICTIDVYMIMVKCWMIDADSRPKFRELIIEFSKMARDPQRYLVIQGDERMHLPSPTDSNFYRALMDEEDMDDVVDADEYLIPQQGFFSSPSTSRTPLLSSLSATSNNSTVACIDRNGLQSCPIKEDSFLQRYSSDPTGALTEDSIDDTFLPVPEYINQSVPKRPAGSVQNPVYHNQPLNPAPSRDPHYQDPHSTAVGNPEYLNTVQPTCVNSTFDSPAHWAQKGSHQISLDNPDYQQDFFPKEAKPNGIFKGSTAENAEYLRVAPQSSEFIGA

SMILES | score (%) (KinomeScan kinase panel [1]) | remaining binding at 10 µM (KinomeScan kinase panel [2]; kinase PRKG2, 10 µM) [%] | remaining binding at 10 µM (KinomeScan kinase panel [3]) [%] | remaining binding at 10 µM (KinomeScan kinase panel [4]) [%] | remaining binding at 10 µM (KinomeScan kinase panel [5]) [%] | remaining binding at 10 µM (KinomeScan kinase panel [6]) [%] | remaining binding at 10 µM (KinomeScan kinase panel [7]) [%] | remaining binding at 10 µM (KinomeScan kinase panel [8]) [%] | remaining binding at 10 µM (KinomeScan kinase panel [9]) [%] | remaining binding at 10 µM (KinomeScan kinase panel [10]) [%] | remaining binding at 10 µM (KinomeScan kinase panel [2]; PRKG2, 10 µM) [%]
CCN1CCN(Cc2ccc(NC(=O)c3ccc(C)c(C#Cc4cccnc4)c3)cc2C(F)(F)F)CC1 [XMD15-44] | 3 | 97 | 0 | > 30 | 8.4 | 2.5 | 1.6 | 0.4 | 58 | > 30 | 
CCN1CCN(Cc2ccc(NC(=O)c3ccc(C)c(/C=C/c4cnc5[nH]ccc5c4Cl)c3)cc2C(F)(F)F)CC1 [HG-6-63-01, (E)-3-(2-(4-chloro-1H-pyrrolo[2,3-b]pyridin-5-yl)vinyl)-N-(4-((4-ethylpiperazin-1-yl)methyl)-3-(trifluoromethyl)phenyl)-4-methylbenzamide] | 0.3 |  | 0 | > 30 | > 30 | 13 | 5.7 | 0.25 | 5 | > 30 | > 30
CCN1CCN(Cc2ccc(NC(=O)c3ccc(C)c(NC(=O)c4cncc(-c5cccs5)c4)c3)cc2C(F)(F)F)CC1 [ALW-II-41-27] | 1.3 |  | 0 | > 30 | 7.4 | 1.5 | 0.55 | 0.15 | > 30 | > 30 | > 30
